“Also recorded” adds a separate entry of the source.
Legend:
[1] = system: Col-0 wt seedlings; assay: Seedling triple response of ethylene-treated etiolated Col-0 wt seedlings; type: in vivo, Arabidopsis
Experimental: (§1) For screening for chemicals that reduce ethylene response, Arabidopsis ctr1-3 seeds were planted on a microtiter plate containing PNS media in the presence of individual chemicals (50 μM concentration of each) from the Microsource Spectrum Collection. Seedlings were grown in the dark for 4 d after which they were scored for manifestation of the ethylene responsive triple response. For all other growth experiments, seedlings were planted on PNS media supplemented with the relevant chemical (Deslauriers and Larsen, 2010). For conditions requiring pamoic acid, media was supplemented with Pamoic acid disodium salt (Sigma Life Science, St. Louis, Mo.). Measurement of ethylene production was conducted as previously described (Deslauriers and Larsen, 2010).
For Col-0 wt, seedlings were grown in either the presence or absence of 5 μM AgNO3, an inhibitor of ethylene perception, or 100 μL L^−1 ethylene, which is a concentration that results in maximal response in etiolated seedlings. […] It should be noted that the phenotype of PA-treated seedlings in the presence of saturating ethylene is strikingly similar to ethylene-treated wei8 and tart loss-of-function mutants, which are deficient in auxin biosynthesis (Stepanova et al., 2008).

[2] = system: ctr1-3 seedlings; assay: Seedling triple response of constitutive ethylene response mutant ctr1-3 (library screen and follow-up); type: in vivo, Arabidopsis
Experimental: as §1
A chemical library screen was performed in which etiolated seedlings of the constitutive ethylene response mutant, ctr1-3, were grown in air for 4 d in the presence of chemicals from the Microsource Spectrum Collection, a bioactive and natural compound library consisting of 2000 different compounds. ctr1-3 seedlings were scored for presentation of the ethylene regulated seedling triple response, consisting of severe hypocotyl and root shortening and exaggerated apical hook formation.

[3] = system: etiolated Col-0 wt seedlings; assay: Measurement of ethylene biosynthesis by gas chromatography; type: in vivo, Arabidopsis
Experimental: as §1

[4] = system: Col-0 wt seedlings; assay: Root length dose response; type: in vivo, Arabidopsis
Experimental: as §1
Auxin is required for normal root growth since at physiological concentrations it promotes cell elongation.

[5] = biological target: T1, TIR1-IAA7 complex (Arabidopsis thaliana, UniProt Q570C0); assay: In vitro assembly of the TIR1-IAA7 complex in the presence of auxin; type: biochemical
T1 sequence (Q570C0 1-594): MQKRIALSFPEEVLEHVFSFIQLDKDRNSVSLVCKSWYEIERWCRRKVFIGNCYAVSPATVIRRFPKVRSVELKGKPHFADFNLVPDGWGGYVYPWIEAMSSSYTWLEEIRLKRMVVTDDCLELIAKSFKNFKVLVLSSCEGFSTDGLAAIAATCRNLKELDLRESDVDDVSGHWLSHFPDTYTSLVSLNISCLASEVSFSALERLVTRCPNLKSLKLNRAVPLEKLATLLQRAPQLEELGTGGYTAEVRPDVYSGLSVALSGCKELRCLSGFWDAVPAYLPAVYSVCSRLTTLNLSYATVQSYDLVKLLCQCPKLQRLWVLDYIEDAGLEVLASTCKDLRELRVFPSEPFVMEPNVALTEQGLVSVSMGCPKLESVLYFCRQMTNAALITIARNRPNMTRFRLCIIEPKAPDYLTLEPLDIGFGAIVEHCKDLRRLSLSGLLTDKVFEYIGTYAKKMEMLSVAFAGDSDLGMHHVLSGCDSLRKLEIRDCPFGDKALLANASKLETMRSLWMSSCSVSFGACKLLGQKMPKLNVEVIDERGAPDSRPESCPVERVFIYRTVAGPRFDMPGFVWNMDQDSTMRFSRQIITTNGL
Source text: It should be noted that based on our growth analysis with various loss-of-function mutants for auxin receptors, it is likely that one or more of the other receptors are affected to a greater extent than TIR1 by each of these chemicals.

[6] = system: Col-0 wt seedlings; assay: Root gravitropism on vertical agar plates; type: in vivo, Arabidopsis
[7] = system: Col-0 wt seedlings; assay: Blockage of auxin dependent inhibition of root growth; type: in vivo, Arabidopsis
Experimental: For screening for chemicals that reduce ethylene response, Arabidopsis ctr1-3 seeds were planted on a microtiter plate containing PNS media in the presence of individual chemicals (50 μM concentration of each) from the Microsource Spectrum Collection. Seedlings were grown in the dark for 4 d after which they were scored for manifestation of the ethylene responsive triple response. For all other growth experiments, seedlings were planted on PNS media supplemented with the relevant chemical (Deslauriers and Larsen, 2010). For conditions requiring pamoic acid, media was supplemented with Pamoic acid disodium salt (Sigma Life Science, St. Louis, Mo.). Measurement of ethylene production was conducted as previously described (Deslauriers and Larsen, 2010). […]

[8] = system: Col-0 wt, tir1-1, afb1-5, afb2-3, afb3-5, afb4-1 seedlings; assay: Hypocotyl and root elongation of auxin receptor loss-of-function mutants; type: in vivo, Arabidopsis; conditions: tir1-1, increasing range of Tolmetin
Source text: Loss of proper auxin signaling as in the dominant shy2-2 mutant (Tian et al., 2003), which fails to have proper turnover of the IAA3 repressor of auxin response, leads to severe hypocotyl shortening for etiolated seedlings (Robles et al., 2012). […] It was of interest to determine what effect PA might have on hypocotyl and root elongation for loss-of-function mutants representing members of the Arabidopsis family of auxin receptors. It was predicted that mutants for receptors with a more prominent role in auxin dependent maintenance of organ elongation would be more severely affected by PA treatment due to the additive effect of the loss-of-function mutation with the effect of this anti-auxinic compound.
For analysis of the role of the various receptors in hypocotyl elongation, Col-0 wt and loss-of-function mutants for all of the auxin receptors (Si-Ammour et al., 2011) except AFB5 were grown for 4 d in the dark in the absence or presence of 30 μM PA on media supplemented with 5 μM AgNO3, which was included to eliminate the negative effect of ethylene on hypocotyl elongation.
A similar result was found for tir1-1 roots. For this experiment, seedlings were grown in the dark for 4 d in the absence or presence of 30 μM PA after which root length was measured. […] This was confirmed by analysis of growth of Col-0 wt and tir1-1 roots across a range of PA concentrations.

[9] = system: DR5::GUS; assay: GUS analysis of auxin responsive DR5::GUS reporter line; type: in vivo, Arabidopsis
Experimental: GUS analysis of DR5::GUS lines was performed as previously described (Ni et al., 2001).
Auxin responsiveness has also been assessed using the Arabidopsis DR5::GUS transgenic line in which several auxin response elements are fused upstream of the GUS reporter gene (Ni et al., 2001). Normally, treatment of DR5::GUS lines with exogenous auxin leads to increased GUS levels, which can be visualized through accumulation of blue color upon adding X-Gluc.

[10] = etiolated ctr1-3 in air, 4 d, 50 μM of each chemical
[11] = 5 days in the light, 50 micromolar Tolmetin (FIG. 7)

blockage of assembly of the TIR1-IAA7 complex [5]: not been possible to demonstrate
Compound: Cc1ccc(C(=O)c2ccc(CC(=O)O)n2C)cc1 [Tolmetin]
seedling length independent of ethylene ([1]; Col-0 wt with 5 μM AgNO3, 4 d dark, 10 μM PA or Tolmetin up to 30 μM): negative effect was not seen
manifestation of the ethylene dependent seedling triple response (loss of apical hook formation) ([1]; Tolmetin 20-100 micromolar, Col-0 wt treated with saturating ethylene (FIG. 1)): partially blocks
apical hook formation ([1]; etiolated Col-0 wt, 100 μL L−1 (saturating) ethylene, 4 d dark, 10 μM PA or Tolmetin up to 30 μM): prevent apical hook formation; also recorded: nearly complete loss of apical hook formation
root length / organ specificity of effect in ethylene treated seedlings ([1]; etiolated Col-0 wt, saturating ethylene, 4 d dark, 10 μM PA or Tolmetin up to 30 μM): specific to hypocotyls
ethylene-dependent root growth inhibition ([2]; ctr1-3, 10 μM PA or 30 micromolar Tolmetin): did not prevent the severe root growth inhibition; also recorded: does not affect ethylene-dependent root growth inhibition
root growth of light grown ctr1-3 ([2]; ctr1-3 grown in the light, increasing concentrations of Tolmetin (FIG. 3)): No positive effect on root growth was observed
apical hook formation ([2]; dark grown ctr1-3, 10 μM PA or 30 μM Tolmetin): prevent apical hook formation; also recorded: fully eliminated apical hook formation; also recorded: nearly complete loss of apical hook formation
apical hook formation in chemical library screen [2, 10]: blocked apical hook formation
root length in chemical library screen [2, 10]: measurably longer roots
ethylene biosynthesis ([3]; 10 μM PA or 30 μM Tolmetin, 96 h, ethylene generated in the last 18 h): no measurable effect on ethylene biosynthesis
ethylene biosynthesis ([3]; 50 micromolar Tolmetin, 4 days in the dark (FIG. 4)): does not reduce ethylene biosynthesis
root length at increasing concentrations ([4]; Col-0 wt, 7 d, increasing concentrations, versus untreated control roots): severe inhibition of root length
root growth at low concentrations ([4]; Col-0 wt, 7 d, low concentrations): stimulatory effect
root length ([4]; light, increasing concentrations of Tolmetin, 5 days (FIG. 5)): inhibitory to root growth at high concentrations
direction of root growth (gravitropism) ([6]; 4 d, vertical agar plates, 30 μM PA or 50 μM Tolmetin): grew in a random manner that was independent of gravity
direction of root growth (gravitropism) [6, 11]: agravitropic root growth
root hairs [6, 11]: completely lacked root hairs
inhibitory effect of Tolmetin on root length on addition of IAA ([7]; 5 days, 50 micromolar Tolmetin plus 300 nM IAA (FIG. 6)): almost completely overcome
root length, Tolmetin alone ([7]; 5 days, 50 micromolar Tolmetin, 0 nM IAA (FIG. 6)): significant root growth inhibition
root length, anti-auxin alone ([7]; light, 7 d, 30 μM PA or 50 μM Tolmetin alone versus untreated roots): significantly inhibited
inhibitory effects of exogenous auxin on root length ([7]; light, 7 d, 30 μM PA with 150 nM NAA, 50 μM Tolmetin with 300 nM IAA): greatly reduced the inhibitory effects of exogenous auxin
root growth sensitivity of tir1-1 [8]: hypersensitive
dark color (GUS) in the absence of exogenous auxin ([9]; 0 versus 100 micromolar Tolmetin, no exogenous auxin (FIG. 8)): comparable level of dark color
staining / auxin dependent lateral root formation ([9]; 100 μM Tolmetin, 750 nM IAA (FIG. 8)): prevented staining in the area of lateral root development; also recorded: completely blocks auxin dependent lateral root formation
auxin dependent accumulation of GUS in root tips ([9]; 100 μM Tolmetin, exposure to IAA): blocked auxin dependent accumulation of GUS in root tips
